Test results as given in US20040152596A1, “Coated seed and process for coating a seed” (priority 2001, published 2004).

Assays:
Tomato = details: for Emergence percentage: fertilizer 10% of seed weight, fixing agent 2% of seed weight
Experimental: (§1) A number of tests were carried out with the purpose of finding for various plant species the optimal fertilizer and the optimal fertilizer amount in terms of emergence. […] The fixing agent was used in an amount of 2% of the weight of the seeds. […] These percentages are % by weight, calculated from the seed weight.

[1] = fertilizer 4% of seed weight, fixing agent 2% of seed weight

Experimental for Barley: as §1
Experimental for Pea: A number of tests were carried out with the purpose of finding for various plant species the optimal fertilizer and the optimal fertilizer amount in terms of emergence. […] The fixing agent was used in an amount of 2% of the weight of the seeds. […] (DCP) or urea phosphate (UP). […] These percentages are % by weight, calculated from the seed weight.
The results of the emergence tests are shown in Table 2, wherein the numeric values indicate the emergence percentage.
Experimental for Rape: as §1
Experimental for Sunflower: as §1
Experimental for Wheat: as §1

Compound: O=P([O-])(O)O.[K+] [MKP, monopotassium phosphate]
- Combined effect in terms of plant emergence and phosphorus uptake (Wheat): best combined effect
- Emergence percentage (Wheat; [1]): 85%
- Combined effect in terms of plant emergence and phosphorus uptake (Barley): best combined effect
- Emergence percentage (Barley; fertilizer 6% of seed weight, fixing agent 2% of seed weight): 93%
- Emergence percentage (Pea; [1]): 95 (4%)
- Emergence percentage (Rape; fertilizer 8% of seed weight, fixing agent 2% of seed weight): 85 (8%)
- Combined effect in terms of plant emergence and phosphorus uptake (Tomato): best combined effect
- Emergence percentage (Tomato): 80%
- Combined effect in terms of plant emergence and phosphorus uptake (Sunflower): best combined effect
- Emergence percentage (Sunflower; fertilizer 10% of seed weight, fixing agent 2% of seed weight): 87%

Compound: NC(N)=O.O=P(O)(O)O [UP, urea phosphate]
- Suitability of phosphorus fertilizer as seed coating (emergence table) (Wheat): Not suitable
- Suitability of phosphorus fertilizer as seed coating (emergence table) (Barley): Not suitable
- Suitability of phosphorus fertilizer as seed coating (emergence table) (Pea): Not suitable
- Suitability of phosphorus fertilizer as seed coating (emergence table) (Rape): Not suitable
- Combined effect in terms of plant emergence and phosphorus uptake (Tomato): best combined effect
- Emergence percentage (Tomato): 82%
- Suitability of phosphorus fertilizer as seed coating (emergence table) (Sunflower): Not suitable
